Laboratory results reported in US20250170130A1, “MODULATORS OF MYC FAMILY PROTO-ONCOGENE PROTEIN” (Nalo Therapeutics, priority 2022, published 2025).

Key:
MycN = molecular target: T1, MycN (Homo sapiens, UniProt P04198); experiment: Degradation of MycN protein in SK-N-BE(2) cells, JESS/Western blot of lysates; assay type: cell-based; details: SKNBE2, 24 h, SKNBE2 cells, 24 h; for Dmax at 0.5 µM: read-out: % Degradation of MycN (SKNBE2) 24 h, 0.5 μM; for Dmax at 1 µM: read-out: % Degradation of MycN (SKNBE2) 24 h, 1 μM; for Dmax at 3 µM: read-out: % Degradation of MycN (SKNBE2) 24 h, 3 μM; for Dmax at 6 µM: read-out: % Degradation of MycN (SKNBE2) 24 h, 6 μM
T1 construct: endogenous in cells; host or cells: SK-N-BE(2)
T1 sequence (P04198 1-464): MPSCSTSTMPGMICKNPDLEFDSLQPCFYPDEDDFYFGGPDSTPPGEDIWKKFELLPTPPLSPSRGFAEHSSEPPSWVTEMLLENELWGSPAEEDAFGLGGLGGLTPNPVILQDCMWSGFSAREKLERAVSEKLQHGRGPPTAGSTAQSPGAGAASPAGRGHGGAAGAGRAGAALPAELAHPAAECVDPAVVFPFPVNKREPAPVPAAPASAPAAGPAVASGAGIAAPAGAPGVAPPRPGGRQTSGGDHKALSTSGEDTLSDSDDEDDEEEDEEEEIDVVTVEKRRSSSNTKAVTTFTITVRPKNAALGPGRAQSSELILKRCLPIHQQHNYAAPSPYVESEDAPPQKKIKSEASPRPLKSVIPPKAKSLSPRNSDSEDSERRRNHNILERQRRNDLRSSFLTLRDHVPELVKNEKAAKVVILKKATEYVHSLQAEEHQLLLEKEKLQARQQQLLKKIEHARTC
Description: (§1) For L363 cells (suspension), 1E6 cells were plated into each well of a 6 well plate. For SK-N-BE(2) cells (adherent), 5E5 cells were plated into each well of a 6 well dish. Cells were cultured for 24 hrs then treated with exemplary compounds at 0.1, 0.5, 1.0, 3.0 and 6.0 mM final assay concentrations plus DMSO control. All compounds were diluted to 10 mM in DMSO. Cells were treated with the compound for 24 hrs, then for both cell types, media containing cells were removed from wells into a 15 ml centrifuge tube, and remaining adherent SK-N-BE(2) cells were also scraped from the wells into the appropriate tubes. Tubes were centrifuged, cells were washed with PBS then re-centrifuged to pellet cells. A RIPA buffer cocktail was added to the cells on ice for 5 mins. Cell lysates were clarified by centrifugation and stored at −80 degrees until required. BCA assay was performed on each lysate to determine the protein concentration.
(§2) Once an appropriate lysate concentration and antibody concentration was determined, samples were screened in the JESS technology (Protein Simple, San Jose, CA—https://www.proteinsimple.com/jess.html).
(§3) Target protein antibodies (n-myc and c-myc) were detected in the chemi-luminescence channel and loading controls (tubulin and GAPDH) were detected using a Near Infra Red (NIR) labeled secondary antibody.
For SK-N-EB2 adherent cells, 5E5 cells in 1.9 mls media were plated into 6 well dishes and incubated for 24 hrs. Exemplary compounds were added (100 ul, 1 in 20 dilution in media) to each well (final assay concentration 6, 3, 1 and […]) together with DMSO control wells and incubated for 24 hrs. Cells were scrapped off the plate, centrifuged, washed with PBS, centrifuged, then a RIPA buffer cocktail added to the cells (100 ul), centrifuged and stored at −80 for later analysis. For L363 suspension cells, 1E6 cells were plated into 24 well dishes (950 ul media) and incubated for 24 hrs. Exemplary compounds were added (50 ul, 1 in 20 dilution in media) to each well (final assay concentration 6, 3, 1 and […]) together with DMSO control wells and incubated for 24 hrs. Cells were aspirated into tubes, centrifuged, washed with PBS, centrifuged, then a RIPA buffer cocktail added to the cells (100 ul), centrifuged and stored at −80 for later analysis.
(§4) For Western blot, a BCA (total protein) assay was run on all samples, these were then run in batches of 5 compounds plus control (DMSO) on each Western blot run—n-myc and c-myc were run in separate experiments in the chemiluminescence channel. Both tubulin and GAPDH were run as loading controls in all lanes in the near infra red channel.

MycC = molecular target: T2, MycC (Homo sapiens, UniProt P01106); experiment: Degradation of MycC protein in L363 cells, JESS/Western blot of lysates; assay type: cell-based; details: L-363, 24 h, L-363 cells, 24 h; for Dmax at 1 µM: read-out: % Degradation of MycC (L-363) 24 h, 1 μM; for Dmax at 6 µM: read-out: % Degradation of MycC (L-363) 24 h, 6 μM; for Dmax at 0.5 µM: read-out: % Degradation of MycC (L-363) 24 h, 0.5 μM; for Dmax at 3 µM: read-out: % Degradation of MycC (L-363) 24 h, 3 μM
T2 construct: endogenous in cells; host or cells: L363
T2 sequence (P01106 whole entry): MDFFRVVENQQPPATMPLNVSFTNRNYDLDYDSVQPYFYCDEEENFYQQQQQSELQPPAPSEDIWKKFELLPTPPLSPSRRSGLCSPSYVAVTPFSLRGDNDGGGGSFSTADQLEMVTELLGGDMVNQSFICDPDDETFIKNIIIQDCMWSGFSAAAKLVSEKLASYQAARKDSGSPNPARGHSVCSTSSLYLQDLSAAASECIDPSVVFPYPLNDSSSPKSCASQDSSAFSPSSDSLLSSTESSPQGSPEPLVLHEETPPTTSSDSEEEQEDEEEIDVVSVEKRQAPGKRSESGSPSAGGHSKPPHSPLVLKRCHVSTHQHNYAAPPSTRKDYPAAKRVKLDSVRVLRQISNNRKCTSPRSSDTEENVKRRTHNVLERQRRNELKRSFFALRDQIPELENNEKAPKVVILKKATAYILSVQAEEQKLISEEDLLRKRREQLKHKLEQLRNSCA
Description: as §1, with “Cells were cultured for 24 hrs then treated with exemplary compounds at 0.1, 0.5, 1.0, 3.0 and 6.0 mM final assay concentrations plus DMSO control.” left out
as §2, §3
For SK-N-EB2 adherent cells, 5E5 cells in 1.9 mls media were plated into 6 well dishes and incubated for 24 hrs. […] Cells were scrapped off the plate, centrifuged, washed with PBS, centrifuged, then a RIPA buffer cocktail added to the cells (100 ul), centrifuged and stored at −80 for later analysis. For L363 suspension cells, 1E6 cells were plated into […] (950 ul media) and incubated for 24 hrs. […] Cells were aspirated into tubes, centrifuged, washed with PBS, centrifuged, then a RIPA buffer cocktail added to the cells (100 ul), centrifuged and stored at −80 for later analysis.
as §4

CN(C)C[C@H]1CCN(c2nccc(Nc3cc(C4CC4)[nH]n3)n2)C1 (stereo in doubt) [Compound 32, N-(5-cyclopropyl-1H-pyrazol-3-yl)-2-[rac-(3R)-3-[(dimethylamino)methyl]pyrrolidin-1-yl]pyrimidin-4-amine]
Dmax at 0.5 µM (MycN): 20 to 49%
Dmax at 1 µM (MycN): 20 to 49%
Dmax at 3 µM (MycN): 50 to 79%
Dmax at 6 µM (MycN): 50 to 79%
Dmax at 1 µM (MycC): < 20%
Dmax at 6 µM (MycC): < 20%

CNC1CC2(C1)CN(c1nccc(Nc3cc(C4CC4)[nH]n3)n1)C2 [Compound 1, 2-(4-((5-cyclopropyl-1H-pyrazol-3-yl)amino)pyrimidin-2-yl)-N-methyl-2-azaspiro[3.3]heptan-6-amine]
Dmax at 3 µM (MycN): < 20%
Dmax at 6 µM (MycN): 50 to 79%
Dmax at 6 µM (MycC): 20 to 49%

c1cc(Nc2cc(C3CC3)[nH]n2)nc(N2CCC3(CNC3)C2)n1 [Compound 2, N-(5-cyclopropyl-1H-pyrazol-3-yl)-2-(2,6-diazaspiro[3.4]octan-6-yl)pyrimidin-4-amine]
Dmax at 0.5 µM (MycN): < 20%
Dmax at 1 µM (MycN): < 20%
Dmax at 3 µM (MycN): < 20%
Dmax at 6 µM (MycN): 50 to 79%
Dmax at 0.5 µM (MycC): 20 to 49%
Dmax at 1 µM (MycC): 20 to 49%
Dmax at 3 µM (MycC): 20 to 49%
Dmax at 6 µM (MycC): 20 to 49%

CN1CC2(CCN(c3nccc(Nc4cc(C5CC5)[nH]n4)n3)C2)C1 [Compound 3, N-(5-cyclopropyl-1H-pyrazol-3-yl)-2-(2-methyl-2,6-diazaspiro[3.4]octan-6-yl)pyrimidin-4-amine]
Dmax at 0.5 µM (MycN): < 20%
Dmax at 1 µM (MycN): < 20%
Dmax at 3 µM (MycN): < 20%
Dmax at 6 µM (MycN): 50 to 79%
Dmax at 0.5 µM (MycC): < 20%
Dmax at 1 µM (MycC): 20 to 49%
Dmax at 6 µM (MycC): 80 to 100%

CN1CC2(C1)CN(c1nccc(Nc3cc(C4CC4)[nH]n3)n1)C2 [Compound 4, N-(5-Cyclopropyl-1H-pyrazol-3-yl)-2-(6-methyl-2,6-diazaspiro[3.3]heptan-2-yl)pyrimidin-4-amine]
Dmax at 0.5 µM (MycN): < 20%
Dmax at 1 µM (MycN): 20 to 49%
Dmax at 3 µM (MycN): 20 to 49%
Dmax at 6 µM (MycN): 20 to 49%
Dmax at 0.5 µM (MycC): < 20%
Dmax at 1 µM (MycC): 20 to 49%
Dmax at 3 µM (MycC): 80 to 100%
Dmax at 6 µM (MycC): 80 to 100%

CN(C)CC1CCN(c2nccc(Nc3cc(C4CC4)[nH]n3)n2)CC1 [Compound 5, N-(5-Cyclopropyl-1H-pyrazol-3-yl)-2-(4-((dimethylamino)methyl)piperidin-1-yl)pyrimidin-4-amine]
Dmax at 6 µM (MycN): 20 to 49%
Dmax at 0.5 µM (MycC): < 20%
Dmax at 1 µM (MycC): < 20%
Dmax at 3 µM (MycC): 20 to 49%
Dmax at 6 µM (MycC): 20 to 49%

c1cc(Nc2cc(C3CC3)[nH]n2)nc(N2CC3(CNC3)C2)n1 [Compound 6, N-(5-Cyclopropyl-1H-pyrazol-3-yl)-2-(2,6-diazaspiro[3.3]heptan-2-yl)pyrimidin-4-amine]
Dmax at 0.5 µM (MycN): < 20%
Dmax at 1 µM (MycN): < 20%
Dmax at 3 µM (MycN): < 20%
Dmax at 6 µM (MycN): < 20%
Dmax at 0.5 µM (MycC): < 20%
Dmax at 1 µM (MycC): 20 to 49%
Dmax at 3 µM (MycC): < 20%
Dmax at 6 µM (MycC): 20 to 49%

CNC[C@H]1CCN(c2nccc(Nc3cc(C4CC4)[nH]n3)n2)C1 [Compound 7, (R)—N-(5-Cyclopropyl-1H-pyrazol-3-yl)-2-(3-((methylamino)methyl)pyrrolidin-1-yl)pyrimidin-4-amine]
Dmax at 0.5 µM (MycN): < 20%
Dmax at 1 µM (MycN): < 20%
Dmax at 3 µM (MycN): 50 to 79%
Dmax at 6 µM (MycN): 80 to 100%
Dmax at 1 µM (MycC): < 20%

CN[C@H]1CCN(c2nccc(Nc3cc(C4CC4)[nH]n3)n2)C1 [Compound 8, (S)—N-(5-cyclopropyl-1H-pyrazol-3-yl)-2-(3-(methylamino)pyrrolidin-1-yl)pyrimidin-4-amine]
Dmax at 3 µM (MycN): < 20%
Dmax at 0.5 µM (MycC): < 20%
Dmax at 1 µM (MycC): < 20%
Dmax at 3 µM (MycC): 20 to 49%

CN(C)[C@H]1CCN(c2nccc(Nc3cc(C4CC4)[nH]n3)n2)C1 [Compound 9, (S)—N-(5-Cyclopropyl-1H-pyrazol-3-yl)-2-(3-(dimethylamino)pyrrolidin-1-yl)pyrimidin-4-amine]
Dmax at 0.5 µM (MycN): 20 to 49%
Dmax at 1 µM (MycN): 20 to 49%
Dmax at 3 µM (MycN): < 20%
Dmax at 6 µM (MycN): < 20%
Dmax at 0.5 µM (MycC): 20 to 49%
Dmax at 1 µM (MycC): 20 to 49%
Dmax at 3 µM (MycC): 20 to 49%
Dmax at 6 µM (MycC): 80 to 100%

NCC1CCN(c2nccc(Nc3cc(C4CC4)[nH]n3)n2)CC1 [Compound 10, 2-(4-(aminomethyl)piperidin-1-yl)-N-(5-cyclopropyl-1H-pyrazol-3-yl)pyrimidin-4-amine]
Dmax at 1 µM (MycN): 20 to 49%
Dmax at 3 µM (MycN): 80 to 100%
Dmax at 6 µM (MycN): 80 to 100%
Dmax at 0.5 µM (MycC): < 20%
Dmax at 1 µM (MycC): < 20%
Dmax at 6 µM (MycC): 20 to 49%

NC[C@H]1CCN(c2nccc(Nc3cc(C4CC4)[nH]n3)n2)C1 [Compound 11, (R)-2-(3-(Aminomethyl)pyrrolidin-1-yl)-N-(5-cyclopropyl-1H-pyrazol-3-yl)pyrimidin-4-amine]
Dmax at 0.5 µM (MycN): < 20%
Dmax at 1 µM (MycN): 80 to 100%
Dmax at 3 µM (MycN): 80 to 100%
Dmax at 6 µM (MycN): 80 to 100%
Dmax at 3 µM (MycC): < 20%

CNCC1CCN(c2nccc(Nc3cc(C4CC4)[nH]n3)n2)CC1 [Compound 12, N-(5-Cyclopropyl-1H-pyrazol-3-yl)-2-(4-((methylamino)methyl)piperidin-1-yl)pyrimidin-4-amine]
Dmax at 3 µM (MycN): 20 to 49%
Dmax at 6 µM (MycN): 50 to 79%
Dmax at 0.5 µM (MycC): < 20%
Dmax at 1 µM (MycC): < 20%
Dmax at 3 µM (MycC): 50 to 79%
Dmax at 6 µM (MycC): 80 to 100%

CNCC12CC(C1)N(c1nccc(Nc3cc(C4CC4)[nH]n3)n1)C2 [Compound 14, N-(5-cyclopropyl-1H-pyrazol-3-yl)-2-(4-((methylamino)methyl)-2-azabicyclo[2.1.1]hexan-2-yl)pyrimidin-4-amine]
Dmax at 0.5 µM (MycN): < 20%
Dmax at 1 µM (MycN): 20 to 49%
Dmax at 3 µM (MycN): 20 to 49%
Dmax at 6 µM (MycN): 80 to 100%
Dmax at 0.5 µM (MycC): 20 to 49%
Dmax at 1 µM (MycC): 80 to 100%
Dmax at 3 µM (MycC): 80 to 100%
Dmax at 6 µM (MycC): 80 to 100%
